Results on 13 molecules are retold here after patent US12180193B2, “Accelerating fibrosarcoma protein degrading compounds and associated methods of use” (Arvinas Operations, Inc., priority 2020, dated 2024).

The target in test [1] is T1, BRAF V600E (Homo sapiens, UniProt P15056, V600E).
T1 construct: expressed in transfected cells
Description: Cellular assay of target protein degradation, T-Rex 293 cells stably transfected with HA-BRAF_V600E (HA immunofluorescence, high content imaging). The note with it: T-Rex 293 HA-BRAF V600E; for DC50: half maximal degradation, read-out: BRaf V600E DC50; for Dmax: maximum degradation observed. The test is classed as cell-based. In outline:
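Doxycycline-induced (1 ng/mL) T-Rex 293 cells expressing HA-BRAF V600E treated 24 h at 37 °C with compound at 1 μM to 0.1 nM final in 0.1% DMSO. Remaining HA-tagged protein quantified by fixed-cell anti-HA immunofluorescence and high-content imaging; DC50 and Dmax (% of control) derived.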

Test [2] concerns the target T2, BRAF G466V (Homo sapiens, UniProt P15056, G466V).
T2 construct: expressed in transfected cells
As to the kind of experiment: Cellular assay of target protein degradation, T-Rex 293 cells stably transfected with HA-BRAF G466V (HA immunofluorescence, high content imaging). To be noted: T-Rex 293 HA-BRAF G466V; for DC50: half maximal degradation, read-out: BRaf G466V DC50; for Dmax: maximum degradation observed. The test is classed as cell-based. A digest of the protocol: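 Doxycycline-induced (0.75 ng/mL) cells treated 24 h at 37 °C with compound from 30 nM to 3 pM (0.1% DMSO). After fixation and permeabilisation, HA-tagged BRAF G466V immunostained and quantified by high-content imaging. DC50 and Dmax (percent of control) derived.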

T2 sequence (P15056 whole entry G466V): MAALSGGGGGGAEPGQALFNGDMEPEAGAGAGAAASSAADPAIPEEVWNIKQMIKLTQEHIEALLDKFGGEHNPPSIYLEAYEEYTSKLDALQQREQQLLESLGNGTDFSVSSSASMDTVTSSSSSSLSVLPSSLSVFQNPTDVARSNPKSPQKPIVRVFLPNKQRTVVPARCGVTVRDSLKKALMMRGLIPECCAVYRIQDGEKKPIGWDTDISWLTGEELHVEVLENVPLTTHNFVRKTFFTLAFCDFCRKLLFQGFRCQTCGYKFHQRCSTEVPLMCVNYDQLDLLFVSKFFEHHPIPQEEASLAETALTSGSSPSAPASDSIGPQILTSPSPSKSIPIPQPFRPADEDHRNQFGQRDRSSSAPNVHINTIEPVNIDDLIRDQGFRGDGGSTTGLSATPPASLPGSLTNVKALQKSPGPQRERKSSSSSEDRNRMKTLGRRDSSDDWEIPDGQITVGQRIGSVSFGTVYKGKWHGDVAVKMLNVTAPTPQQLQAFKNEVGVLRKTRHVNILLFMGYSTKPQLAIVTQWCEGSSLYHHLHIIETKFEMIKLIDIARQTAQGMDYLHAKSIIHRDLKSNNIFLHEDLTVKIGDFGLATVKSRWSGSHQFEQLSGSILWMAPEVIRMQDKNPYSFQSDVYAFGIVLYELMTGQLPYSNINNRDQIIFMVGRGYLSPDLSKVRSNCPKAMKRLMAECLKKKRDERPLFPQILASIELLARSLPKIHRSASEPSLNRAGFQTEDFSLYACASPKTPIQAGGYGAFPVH
T1 sequence (P15056 whole entry V600E): as the sequence (P15056 whole entry G466V) above, with V466G, V600E counted along it

On to `O=C1CCC(N2Cc3cc(CN4CCN(c5ccc(-c6cnc7[nH]cc(C(=O)c8c(F)ccc(NS(=O)(=O)N9CC[C@@H](F)C9)c8F)c7c6)cc5)C[C@H]4CO)ccc3C2=O)C(=O)N1` (stereo partly drawn) [Compound 112, (3R)-N-[3-(5-{4-[(3S)-4-{[2-(2,6-dioxopiperidin-3-yl)-1-oxo-2,3-dihydro-1H-isoindol-5-yl]methyl}-3-(hydroxymethyl)piperazin-1-yl]phenyl}-1H-pyrrolo [2,3-b]pyridine-3-carbonyl)-2,4-difluorophenyl]-3-fluoropyrrolidine-1-sulfonamide], for which, in test [1], the 50% degradation concentration (DC50) (commonly the midpoint of the concentration-degradation curve) lay within 50 to 500 nM and the maximal degradation (Dmax) (in general, the greatest extent of degradation seen) is under 35%. In test [2], the DC50 lay in the range of 10 to 30 nM and the greatest degradation seen (Dmax) was in the range of 35 to 70%.
Taken in the same sequence, the figures for `O=C1CCC(N2Cc3cc(OCCCCN4CCN(c5ccc(-c6cnc7[nH]cc(C(=O)c8c(F)ccc(NS(=O)(=O)N9CC[C@@H](F)C9)c8F)c7c6)cc5F)CC4)ccc3C2=O)C(=O)N1` (stereo partly drawn) [Compound 113, (3R)-N-[3-(5-{4-[4-(4-{[2-(2,6-dioxopiperidin-3-yl)-1-oxo-2,3-dihydro-1H-isoindol-5-yl]oxy}butyl)piperazin-1-yl]-3-fluorophenyl}-1H-pyrrolo[2,3-b]pyridine-3-carbonyl)-2,4-difluorophenyl]-3-fluoropyrrolidine-1-sulfonamide] were 5 to 50 nM, 35 to 70%, 1 to 10 nM and over 70%.
Taken in the same sequence, the figures for `O=C1CCC(N2Cc3cc(N4CC5(CN(CCOc6ccc(-c7cnc8[nH]cc(C(=O)c9c(F)ccc(NS(=O)(=O)N%10CC[C@@H](F)C%10)c9F)c8c7)cc6F)C5)C4)ccc3C2=O)C(=O)N1` (stereo partly drawn) [Compound 114, (3R)-N-(3-{5-[4-(2-{6-[2-(2,6-dioxopiperidin-3-yl)-1-oxo-2,3-dihydro-1H-isoindol-5-yl]-2,6-diazaspiro[3.3]heptan-2-yl}ethoxy)-3-fluorophenyl]-1H-pyrrolo[2,3-b]pyridine-3-carbonyl}-2,4-difluorophenyl)-3-fluoropyrrolidine-1-sulfonamide] were 5 to 50 nM, 35 to 70%, 1 to 10 nM and over 70%.
In the case of `O=C1CCC(N2Cc3cc(N4CCN(c5cc(N6CCN(c7ccc(-c8cnc9[nH]cc(C(=O)c%10c(F)ccc(NS(=O)(=O)N%11CC[C@@H](F)C%11)c%10F)c9c8)cc7)CC6)ncn5)CC4)ccc3C2=O)C(=O)N1` (stereo partly drawn) [Compound 115, (3R)-N-[3-(5-{4-[4-(6-{4-[2-(2,6-dioxopiperidin-3-yl)-1-oxo-2,3-dihydro-1H-isoindol-5-yl]piperazin-1-yl}pyrimidin-4-yl)piperazin-1-yl]phenyl}-1H-pyrrolo[2,3-b]pyridine-3-carbonyl)-2,4-difluorophenyl]-3-fluoropyrrolidine-1-sulfonamide], in test [1], the half-maximal degradation concentration (DC50) lay within 5 to 50 nM and the Dmax was under 35%. In test [2], the half-maximal degradation concentration (DC50) lay in the range of 1 to 10 nM and the Dmax was in the range of 35 to 70%.
Taken in the same sequence, the figures for `O=C1CC[C@@H](N2Cc3cc(C[C@H](O)CN4CCC(c5ccc(-c6cnc7[nH]cc(C(=O)c8c(F)ccc(NS(=O)(=O)N9CC[C@@H](F)C9)c8F)c7c6)cc5)CC4)ccc3C2=O)C(=O)N1` [Compound 116, (3R)-N-{3-[5-(4-{1-[(2S)-3-{2-[(3R)-2,6-dioxopiperidin-3-yl]-1-oxo-2,3-dihydro-1H-isoindol-5-yl}-2-hydroxypropyl]piperidin-4-yl}phenyl)-1H-pyrrolo[2,3-b]pyridine-3-carbonyl]-2,4-difluorophenyl}-3-fluoropyrrolidine-1-sulfonamide] were 5 to 50 nM, 35 to 70%, under 1 nM and 35 to 70%.
The matching figures for `O=C1CCC(N2Cc3cc(N4CC5(CN(CCOc6ncc(-c7cnc8[nH]cc(C(=O)c9c(F)ccc(NS(=O)(=O)N%10CC[C@@H](F)C%10)c9F)c8c7)cn6)C5)C4)ccc3C2=O)C(=O)N1` (stereo partly drawn) [Compound 117, (3R)-N-(3-{5-[2-(2-{6-[2-(2,6-dioxopiperidin-3-yl)-1-oxo-2,3-dihydro-1H-isoindol-5-yl]-2,6-diazaspiro[3.3]heptan-2-yl}ethoxy)pyrimidin-5-yl]-1H-pyrrolo [2,3-b]pyridine-3-carbonyl}-2,4-difluorophenyl)-3-fluoropyrrolidine-1-sulfonamide]: 50 to 500 nM, 35 to 70%, 1 to 10 nM and over 70%.
Turning to `O=C1CCC(N2Cc3cc(C4CCN(C[C@@H](O)Cc5ccc(-c6cnc7[nH]cc(C(=O)c8c(F)ccc(NS(=O)(=O)N9CC[C@@H](F)C9)c8F)c7c6)cc5)CC4)ccc3C2=O)C(=O)N1` (stereo partly drawn) [Compound 118, (3R)-N-[3-(5-{4-[(2S)-3-{4-[2-(2,6-dioxopiperidin-3-yl)-1-oxo-2,3-dihydro-1H-isoindol-5-yl]piperidin-1-yl}-2-hydroxypropyl]phenyl}-1H-pyrrolo[2,3-b]pyridine-3-carbonyl)-2,4-difluorophenyl]-3-fluoropyrrolidine-1-sulfonamide], in test [1], the half-maximal degradation concentration (DC50) was over 500 nM and the Dmax was over 70%. Moreover, in test [2], the half-maximal degradation concentration (DC50) lay in the range of 1 to 10 nM and the maximal degradation (Dmax) was over 70%.
Consider `O=C1CCC(N2Cc3cc(C4CCN(CC5(O)CCN(c6ccc(-c7cnc8[nH]cc(C(=O)c9c(F)ccc(NS(=O)(=O)N%10CC[C@@H](F)C%10)c9F)c8c7)cc6)CC5)CC4)ccc3C2=O)C(=O)N1` (stereo partly drawn) [Compound 119, (3R)-N-[3-(5-{4-[4-({4-[2-(2,6-dioxopiperidin-3-yl)-1-oxo-2,3-dihydro-1H-isoindol-5-yl]piperidin-1-yl}methyl)-4-hydroxypiperidin-1-yl]phenyl}-1H-pyrrolo[2,3-b]pyridine-3-carbonyl)-2,4-difluorophenyl]-3-fluoropyrrolidine-1-sulfonamide], for which the DC50 was under 5 nM in test [1] and under 1 nM in test [2]. In addition, the greatest degradation seen (Dmax) in test [1] and in test [2] was 35 to 70% throughout.
For the molecule `O=C1CCC(N2Cc3cc(OCCCCN4CCN(c5ccc(-c6cnc7[nH]cc(C(=O)c8c(F)ccc(NS(=O)(=O)N9CC[C@@H](F)C9)c8F)c7c6)cn5)CC4)ccc3C2=O)C(=O)N1` (stereo partly drawn) [Compound 120, (3R)-N-[3-(5-{6-[4-(4-{[2-(2,6-dioxopiperidin-3-yl)-1-oxo-2,3-dihydro-1H-isoindol-5-yl]oxy}butyl)piperazin-1-yl]pyridin-3-yl}-1H-pyrrolo[2,3-b]pyridine-3-carbonyl)-2,4-difluorophenyl]-3-fluoropyrrolidine-1-sulfonamide], in test [1], the 50% degradation concentration (DC50) lay in the range of 5 to 50 nM and the greatest degradation seen (Dmax) lay within 35 to 70%. Moreover, in test [2], the DC50 was 1 to 10 nM and the Dmax is over 70%.
Taken in the same sequence, the figures for `O=C1CCC(N2Cc3cc(OCCCCN4CCN(c5ncc(-c6cnc7[nH]cc(C(=O)c8c(F)ccc(NS(=O)(=O)N9CC[C@@H](F)C9)c8F)c7c6)cn5)CC4)ccc3C2=O)C(=O)N1` (stereo partly drawn) [Compound 121, (3R)-N-[3-(5-{2-[4-(4-{[2-(2,6-dioxopiperidin-3-yl)-1-oxo-2,3-dihydro-1H-isoindol-5-yl]oxy}butyl)piperazin-1-yl]pyrimidin-5-yl}-1H-pyrrolo[2,3-b]pyridine-3-carbonyl)-2,4-difluorophenyl]-3-fluoropyrrolidine-1-sulfonamide] were 5 to 50 nM, 35 to 70%, 1 to 10 nM and over 70%.
Taken in the same sequence, the figures for `O=C1CCC(N2Cc3cc(OC[C@@H](O)CN4CC5(C4)CN(c4ccc(-c6cnc7[nH]cc(C(=O)c8c(F)ccc(NS(=O)(=O)N9CC[C@@H](F)C9)c8F)c7c6)cc4)C5)ccc3C2=O)C(=O)N1` (stereo partly drawn) [Compound 122, (3R)-N-{3-[5-(4-{6-[(2S)-3-{[2-(2,6-dioxopiperidin-3-yl)-1-oxo-2,3-dihydro-1H-isoindol-5-yl]oxy}-2-hydroxypropyl]-2,6-diazaspiro[3.3]heptan-2-yl}phenyl)-1H-pyrrolo[2,3-b]pyridine-3-carbonyl]-2,4-difluorophenyl}-3-fluoropyrrolidine-1-sulfonamide] were 5 to 50 nM, 35 to 70%, 1 to 10 nM and over 70%.
Turning to `O=C1CC[C@H](N2Cc3cc(OC[C@H](O)CN4CC5(C4)CN(c4ccc(-c6cnc7[nH]cc(C(=O)c8c(F)ccc(NS(=O)(=O)N9CC[C@@H](F)C9)c8F)c7c6)cc4)C5)ccc3C2=O)C(=O)N1` [Compound 123, (3R)—N-[3-[5-[4-[6-[(2R)-3-[2-[(3S)-2,6-dioxo-3-piperidyl]-1-oxo-isoindolin-5-yl]oxy-2-hydroxy-propyl]-2,6-diazaspiro[3.3]heptan-2-yl]phenyl]-1H-pyrrolo[2,3-b]pyridine-3-carbonyl]-2,4-difluoro-phenyl]-3-fluoro-pyrrolidine-1-sulfonamide], in test [1], the DC50 is 5 to 50 nM and the Dmax lay in the range of 35 to 70%. Further, in test [2], the DC50 was in the range of 1 to 10 nM and the greatest degradation seen (Dmax) is over 70%.
As to `O=C1CC[C@@H](N2Cc3cc(OC[C@H](O)CN4CC5(C4)CN(c4ccc(-c6cnc7[nH]cc(C(=O)c8c(F)ccc(NS(=O)(=O)N9CC[C@@H](F)C9)c8F)c7c6)cc4)C5)ccc3C2=O)C(=O)N1` [Compound 124, (3R)—N-[3-[5-[4-[6-[(2R)-3-[2-[(3R)-2,6-dioxo-3-piperidyl]-1-oxo-isoindolin-5-yl]oxy-2-hydroxy-propyl]-2,6-diazaspiro[3.3]heptan-2-yl]phenyl]-1H-pyrrolo[2,3-b]pyridine-3-carbonyl]-2,4-difluoro-phenyl]-3-fluoro-pyrrolidine-1-sulfonamide], in test [1], the half-maximal degradation concentration (DC50) lay in the range of 5 to 50 nM and the greatest degradation seen (Dmax) lay within 35 to 70%. Also, in test [2], the DC50 fell in the range of 1 to 10 nM and the Dmax was over 70%.
